Test results published in US8633206B2, “Pyrrolo[2,3-D]pyrimidine compounds” (Pfizer Inc., priority 2009, dated 2014).

Legend:
Type in all cases: biochemical
JAK3 = JAK3 (Homo sapiens (Human), UniProt P52333); test: JAK enzymatic assay (peptide mobility shift), JAK3; conditions: recombinant JAK3 1 nM, JAKtide peptide, 90 minutes
JAK2 = JAK2 (Homo sapiens (Human), UniProt O60674); test: JAK enzymatic assay (peptide mobility shift), JAK2; conditions: recombinant JAK2 2 nM, JAKtide peptide, 150 minutes
Sequence of JAK2 (O60674 808-1132): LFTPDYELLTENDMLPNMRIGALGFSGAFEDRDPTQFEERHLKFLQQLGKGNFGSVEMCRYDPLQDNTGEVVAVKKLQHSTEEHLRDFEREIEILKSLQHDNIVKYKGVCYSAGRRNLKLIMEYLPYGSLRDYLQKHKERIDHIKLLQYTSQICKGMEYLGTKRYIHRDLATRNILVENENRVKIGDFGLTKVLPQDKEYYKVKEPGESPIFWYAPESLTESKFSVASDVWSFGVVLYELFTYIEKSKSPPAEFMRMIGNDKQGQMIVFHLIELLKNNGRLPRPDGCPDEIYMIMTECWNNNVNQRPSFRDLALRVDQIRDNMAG

JAK1 = JAK1 (Homo sapiens (Human), UniProt P23458); test: JAK enzymatic assay (peptide mobility shift), JAK1; conditions: recombinant JAK1 20 nM, IRS-1 peptide, 240 minutes
Sequence of JAK1 (P23458 whole entry): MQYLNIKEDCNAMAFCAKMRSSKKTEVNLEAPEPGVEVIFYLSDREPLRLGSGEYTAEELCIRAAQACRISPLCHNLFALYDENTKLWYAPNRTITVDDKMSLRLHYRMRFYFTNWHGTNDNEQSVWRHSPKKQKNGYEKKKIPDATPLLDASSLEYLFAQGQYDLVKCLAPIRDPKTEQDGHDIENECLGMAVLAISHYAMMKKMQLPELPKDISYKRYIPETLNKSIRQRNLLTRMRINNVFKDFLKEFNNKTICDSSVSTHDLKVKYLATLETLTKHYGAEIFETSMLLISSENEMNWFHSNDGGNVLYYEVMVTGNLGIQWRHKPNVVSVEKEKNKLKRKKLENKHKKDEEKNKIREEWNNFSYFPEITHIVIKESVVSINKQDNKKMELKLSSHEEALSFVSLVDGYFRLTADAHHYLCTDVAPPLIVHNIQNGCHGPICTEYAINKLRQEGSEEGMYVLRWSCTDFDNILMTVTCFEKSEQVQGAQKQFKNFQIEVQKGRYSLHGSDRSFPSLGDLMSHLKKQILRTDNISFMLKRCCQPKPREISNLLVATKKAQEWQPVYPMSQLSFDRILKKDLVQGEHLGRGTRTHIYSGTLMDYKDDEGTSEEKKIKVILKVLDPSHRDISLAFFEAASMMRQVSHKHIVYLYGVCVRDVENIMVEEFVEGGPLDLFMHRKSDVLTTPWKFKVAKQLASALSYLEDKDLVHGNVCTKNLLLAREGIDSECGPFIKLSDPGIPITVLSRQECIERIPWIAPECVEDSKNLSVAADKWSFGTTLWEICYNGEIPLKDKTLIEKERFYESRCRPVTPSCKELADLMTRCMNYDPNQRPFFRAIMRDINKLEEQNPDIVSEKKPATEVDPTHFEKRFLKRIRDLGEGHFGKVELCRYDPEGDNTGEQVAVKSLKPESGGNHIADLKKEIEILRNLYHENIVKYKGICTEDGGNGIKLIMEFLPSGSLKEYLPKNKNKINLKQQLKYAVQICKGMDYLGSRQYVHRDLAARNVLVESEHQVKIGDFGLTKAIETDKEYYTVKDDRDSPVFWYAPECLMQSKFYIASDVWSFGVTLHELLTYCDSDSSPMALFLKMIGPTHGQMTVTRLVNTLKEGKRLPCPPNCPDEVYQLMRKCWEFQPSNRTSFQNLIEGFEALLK

Sequence of JAK3 (P52333 781-1124): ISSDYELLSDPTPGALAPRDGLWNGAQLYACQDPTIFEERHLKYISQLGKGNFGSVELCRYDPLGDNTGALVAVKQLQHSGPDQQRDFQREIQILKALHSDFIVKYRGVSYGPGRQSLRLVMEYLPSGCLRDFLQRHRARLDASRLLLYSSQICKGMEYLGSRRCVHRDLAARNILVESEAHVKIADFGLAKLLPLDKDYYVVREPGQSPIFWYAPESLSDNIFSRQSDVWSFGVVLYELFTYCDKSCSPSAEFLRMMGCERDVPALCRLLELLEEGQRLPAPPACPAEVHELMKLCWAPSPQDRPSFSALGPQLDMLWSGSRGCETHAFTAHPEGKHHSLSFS

| SMILES | IC50 (JAK3) | IC50 (JAK2) | IC50 (JAK1) |
| --- | --- | --- | --- |
| CN(c1ncnc2[nH]ccc12)[C@H]1CC[C@H](CS(=O)(=O)N2CCC[C@H](CO)C2)CC1 [Example 62, {1-[({trans-4-[methyl(7H-pyrrolo[2,3-d]pyrimidin-4-yl)amino]cyclohexyl}-methyl)sulfonyl]piperidin-3-yl}methanol] | 233 nM | 20.1 nM | 2.4 nM |
| CN(c1ncnc2[nH]ccc12)[C@H]1CC[C@H](CS(=O)(=O)N2CCC[C@@](C)(CO)C2)CC1 [Example 63, {3-methyl-1-[({trans-4-[methyl(7H-pyrrolo[2,3-d]-pyrimidin-4-yl)amino]-cyclohexyl}methyl)sulfonyl]piperidin-3-yl}methanol] | 554 nM | 50.7 nM | 8.88 nM |
| CN(c1ncnc2[nH]ccc12)[C@H]1CC[C@H](CS(=O)(=O)N2CCC[C@H](C#N)C2)CC1 [Example 64, 1-[({trans-4-[methyl(7H-pyrrolo[2,3-d]pyrimidin-4-yl)amino]cyclohexyl}-methyl)sulfonyl]piperidine-3-carbonitrile] | 263 nM | 32.1 nM | 2.71 nM |
| CN(c1ncnc2[nH]ccc12)[C@H]1CC[C@H](CS(=O)(=O)N2CCC[C@@](C)(O)C2)CC1 [Example 65, 3-methyl-1-[({trans-4-[methyl(7H-pyrrolo[2,3-d]-pyrimidin-4-yl)amino]-cyclohexyl}methyl)sulfonyl] piperidin-3-ol] | 431 nM | 40.9 nM | 7.6 nM |
| CN(c1ncnc2[nH]ccc12)[C@H]1CC[C@H](CS(=O)(=O)N2CCC[C@H](CS(N)(=O)=O)C2)CC1 [Example 66, 1-{1-[({trans-4-[methyl(7H-pyrrolo[2,3-d]pyrimidin-4-yl)amino]cyclohexyl}-methyl)sulfonyl]piperidin-3-yl}-methanesulfonamide] | 128 nM | 22 nM | 3.1 nM |
| CN(c1ncnc2[nH]ccc12)[C@H]1CC[C@H](CS(=O)(=O)N2CCC[C@H](CS(C)(=O)=O)C2)CC1 [Example 67, N-methyl-N-{trans-4-[({3-[(methylsulfonyl)methyl]-piperidin-1-yl}sulfonyl)-methyl]cyclohexyl}-7H-pyrrolo[2,3-d]pyrimidin-4-amine] | 573 nM | 92.2 nM | 20.6 nM |
| CO[C@@H]1CCN(S(=O)(=O)C[C@H]2CC[C@H](N(C)c3ncnc4[nH]ccc34)CC2)C1 [Example 68, N-[trans-4-({[(3R)-3-methoxypyrrolidin-1-yl]sulfonyl}methyl)cyclo-hexyl]-N-methyl-7H-pyrrolo[2,3-d]pyrimidin-4-amine] | 468 nM | 41.8 nM | 11.9 nM |
| COC[C@H]1CCCN1S(=O)(=O)C[C@H]1CC[C@H](N(C)c2ncnc3[nH]ccc23)CC1 [Example 69, N-[trans-4-({[(2R)-2-(methoxymethyl)pyrrolidin-1-yl]sulfonyl}methyl)-cyclohexyl]-N-methyl-7H-pyrrolo[2,3-d]pyrimidin-4-amine] | 370 nM | 56.2 nM | 9.55 nM |
| CN(c1ncnc2[nH]ccc12)[C@H]1CC[C@H](CS(=O)(=O)N2CC[C@H](F)C2)CC1 [Example 70, N-[trans-4-({[(3S)-3-fluoropyrrolidin-1-yl]sulfonyl}methyl)cyclo-hexyl]-N-methyl-7H-pyrrolo[2,3-d]pyrimidin-4-amine] | 319 nM | 36.4 nM | 20.8 nM |
| CN(c1ncnc2[nH]ccc12)[C@H]1CC[C@H](CS(=O)(=O)N2C[C@@H](O)[C@@H](O)C2)CC1 [Example 71, (3R,4S)-1-[({trans-4-[methyl(7H-pyrrolo[2,3-d]-pyrimidin-4-yl)amino]-cyclohexyl}methyl)sulfonyl] pyrrolidine-3,4-diol] | 80.8 nM | 8.54 nM | 2.52 nM |
| CN(c1ncnc2[nH]ccc12)[C@H]1CC[C@H](CS(=O)(=O)N2C[C@@H](O)[C@H](O)C2)CC1 [Example 72, (3R,4R)-1-[({trans-4-[methyl(7H-pyrrolo[2,3-d]-pyrimidin-4-yl)amino]-cyclohexyl}methyl)sulfonyl] pyrrolidine-3,4-diol] | 173 nM | 39.6 nM | 5.92 nM |
| COC[C@@H]1CCN(S(=O)(=O)C[C@H]2CC[C@H](N(C)c3ncnc4[nH]ccc34)CC2)C1 [Example 73, N-[trans-4-({[3-(methoxy-methyl)pyrrolidin-1-yl]-sulfonyl}methyl)-cyclohexyl]-N-methyl-7H-pyrrolo[2,3-d]pyrimidin-4-amine] | 138 nM | 22.5 nM | 1.69 nM |

Results, then the molecule that gave them:

| IC50 (JAK3) | IC50 (JAK2) | IC50 (JAK1) | SMILES |
| --- | --- | --- | --- |
| 495 nM | 55.2 nM | 17.3 nM | CC[C@@]1(CO)CCN(S(=O)(=O)C[C@H]2CC[C@H](N(C)c3ncnc4[nH]ccc34)CC2)C1 [Example 74, {3-ethyl-1-[({trans-4-[methyl(7H-pyrrolo[2,3-d]-pyrimidin-4-yl)amino]-cyclohexyl}methyl)sulfonyl]-pyrrolidin-3-yl}methanol] |
| 399 nM | 62.2 nM | 19.1 nM | CN(c1ncnc2[nH]ccc12)[C@H]1CC[C@H](CS(=O)(=O)N2CC[C@H](NC(=O)C(F)(F)F)C2)CC1 [Example 75, 2,2,2-trifluoro-N-{(3S)-1-[({trans-4-[methyl(7H-pyrrolo[2,3-d]pyrimidin-4-yl)amino]cyclohexyl}methyl)-sulfonyl]pyrrolidin-3-yl}acetamide] |
| 125 nM | 27.2 nM | 2.98 nM | CN(c1ncnc2[nH]ccc12)[C@H]1CC[C@H](CS(=O)(=O)N2CC[C@H](S(C)(=O)=O)C2)CC1 [Example 76, N-methyl-N-[trans-4-({[3-(methylsulfonyl)pyrrolidin-1-yl]sulfonyl}methyl)-cyclohexyl]-7H-pyrrolo[2,3-d]pyrimidin-4-amine] |
| 644 nM | 50.2 nM | 10.1 nM | CN(C)C(=O)CO[C@@H]1CCN(S(=O)(=O)C[C@H]2CC[C@H](N(C)c3ncnc4[nH]ccc34)CC2)C1 [Example 77, N,N-dimethyl-2-({(3R)-1-[({trans-4-[methyl(7H-pyrrolo[2,3-d]pyrimidin-4-yl)amino]cyclohexyl}-methyl)sulfonyl]pyrrolidin-3-yl}oxy)acetamide] |
| 275 nM | 34.3 nM | 13.8 nM | CN(c1ncnc2[nH]ccc12)[C@H]1CC[C@H](CS(=O)(=O)N2C[C@@H](F)[C@H](F)C2)CC1 [Example 78, N-[trans-4-({[(3R,4R)-3,4-difluoropyrrolidin-1-yl]sulfonyl}methyl)cyclo-hexyl]-N-methyl-7H-pyrrolo[2,3-d]pyrimidin-4-amine] |
| 580 nM | 55.6 nM | 14.4 nM | CN(c1ncnc2[nH]ccc12)[C@H]1CC[C@H](CS(=O)(=O)N2C[C@](C)(CO)[C@](C)(CO)C2)CC1 [Example 79, {(3R,4S)-3,4-dimethyl-1-[({trans-4-[methyl(7H-pyrrolo[2,3-d]pyrimidin-4-yl)amino]cyclohexyl}methyl)-sulfonyl]pyrrolidine-3,4-diyl}dimethanol] |
| 205 nM | 18.5 nM | 3.03 nM | C[C@H]1CN(S(=O)(=O)C[C@H]2CC[C@H](N(C)c3ncnc4[nH]ccc34)CC2)C[C@@H]1CO [Example 80, {(3R,4R)-4-methyl-1-[({trans-4-[methyl(7H-pyrrolo[2,3-d]pyrimidin-4-yl)amino]cyclohexyl}-methyl)sulfonyl]pyrrolidin-3-yl}methanol] |
